In brackets after ≈: the same amount, converted by molar mass.
What was measured:
[1] = Permeability across MDCK cells; assay type: ADME, cell-based, Canis lupus familiaris; conditions: dog
[2] = Clearance in rat; assay type: ADME, organism-based; conditions: in vivo
[3] = Volume of distribution at steady state in rat; assay type: ADME, organism-based; conditions: in vivo, read-out: Vdss
[4] = Volume of distribution at steady state in dog; assay type: ADME, organism-based, Canis lupus familiaris; conditions: in vivo, read-out: Vdss
[5] = Half life in rat; assay type: ADME, organism-based; conditions: in vivo
[6] = Half life in dog; assay type: ADME, organism-based, Canis lupus familiaris; conditions: in vivo
[7] = Clearance in dog; assay type: ADME, organism-based, Canis lupus familiaris; conditions: in vivo
[8] = Solubility in aqueous solution at pH 6.5; assay type: physicochemical
[9] = Oral bioavailability in dog; assay type: ADME, organism-based, Canis lupus familiaris; conditions: in vivo
[10] = Oral bioavailability in rat; assay type: ADME, organism-based; conditions: in vivo

Papp [1]	clearance [2]	Vd [3]	Vd [4]	half-life [5]	half-life [6]	clearance [7]	solubility [8]	bioavailability [9]	bioavailability [10]	SMILES
16 ×10⁻⁶ cm/s	34 mL/min/kg	6.5 L/kg	6.5 L/kg	2.6 h	3.6 h	25 mL/min/kg	338 µg/mL (≈ 654 µM)	56%	–	CCc1nc2ccccc2n1-c1nc(N2CCOCC2)c2nc(CN3CC(C4CCOCC4)C3)n(C)c2n1
–	19 mL/min/kg	4.1 L/kg	2 L/kg	1.5 h	6.4 h	5 mL/min/kg	–	> 100%	92%	CCc1nc2ccccc2n1-c1nc(N2CCOCC2)c2nc(CN3CCC(C(C)(C)O)CC3)n(C)c2n1
